Source: PMC5807507, “Crystal structures of a bacterial dipeptidyl peptidase IV reveal a novel substrate recognition mechanism distinct from that of mammalian orthologues” (Scientific Reports, 2018)
Like-named read-outs stand apart in the source and are kept apart here.

Key:
PmDAP IV [1] = molecular target: T1, PmDAP IV (Pseudoxanthomonas mexicana, UniProt Q6F3I7); test: Gly-Pro-MCA fluorescence hydrolysis inhibition; Ki by Cheng-Prusoff; format: biochemical
T1 construct: gene dap4; M12I lies in the removed signal; no tag; 723 residues, 82-kDa; homodimer; crystal model Ala22-Pro745
Excerpt: Gly-Pro-MCA fluorescence hydrolysis inhibition; Ki by Cheng-Prusoff on PmDAP IV
Target sequence in this assay (Q6F3I7 22-745): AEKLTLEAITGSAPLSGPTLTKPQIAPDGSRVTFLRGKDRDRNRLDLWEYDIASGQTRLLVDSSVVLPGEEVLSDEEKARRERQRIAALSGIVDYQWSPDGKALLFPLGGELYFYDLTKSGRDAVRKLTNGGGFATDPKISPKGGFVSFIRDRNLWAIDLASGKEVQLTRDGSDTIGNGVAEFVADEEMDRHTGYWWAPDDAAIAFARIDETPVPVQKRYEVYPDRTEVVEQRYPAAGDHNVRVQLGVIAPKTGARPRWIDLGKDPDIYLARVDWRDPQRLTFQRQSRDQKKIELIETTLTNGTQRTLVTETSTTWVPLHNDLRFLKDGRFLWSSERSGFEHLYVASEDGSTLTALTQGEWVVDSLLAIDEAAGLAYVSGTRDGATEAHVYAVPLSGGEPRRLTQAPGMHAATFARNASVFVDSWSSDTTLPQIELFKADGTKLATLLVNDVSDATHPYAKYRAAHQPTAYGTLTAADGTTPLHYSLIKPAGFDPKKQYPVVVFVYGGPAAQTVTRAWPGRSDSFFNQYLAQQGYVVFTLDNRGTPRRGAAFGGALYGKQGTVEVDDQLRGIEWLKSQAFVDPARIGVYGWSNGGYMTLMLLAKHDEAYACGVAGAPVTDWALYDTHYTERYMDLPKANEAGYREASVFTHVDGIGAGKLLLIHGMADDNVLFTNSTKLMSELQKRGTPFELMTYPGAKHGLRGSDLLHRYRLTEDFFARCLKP

PmDAP IV [2] = molecular target: T1, PmDAP IV; test: biochemical
Method: Inhibitor sensitivities of PmDAP IV and human DPP IV Gliptins and diprotin A were purchased from NAMIKI SHOJI Co., Ltd. (Tokyo, Japan) and Peptide Institute, Inc. (Osaka, Japan), respectively. Half-maximal inhibitory concentration (IC50) values were determined by fitting to a sigmoid curve (4-parameter logistic curve) using ImageJ[73]. […] Inhibitor concentrations for PmDAP IV were 0.78, 1.56, 3.13, 6.25, 12.5, 25, 50 and 100 µM, and those for human DPP IV were 0.78, 1.56, 3.13, 6.25, 12.5, 25, 50 and 100 nM. Standard deviations were calculated from three independent experiments. Fluorescence intensity was measured with excitation at 355 nm and emission at 460 nm using an Infinite 200 PRO microplate reader. Inhibition constants (Ki) were calculated using the Cheng-Prusoff equation[74]. Arg106 of PmDAP IV, which is involved in the recognition of the carbonyl group of the P2 residue of the substrate peptide, was mutated to Ala or Lys. The mutants were expressed and purified using the method described above for wild-type PmDAP IV. Recombinant human DPP IV was purchased from ATGen Co., Ltd. (Los Angeles, USA). Kinetic parameters were determined by fitting the experimental data to the Michaelis–Menten equation using Excel Solver (Microsoft) by nonlinear least squares fitting for different concentrations (0.78, 1.56, 3.13, 6.25, 12.5, 25, 50 and 100 µM) of glycyl-L-proline 4-methylcoumaryl-7-amide (Gly-Pro-MCA, Peptide Institute) as a substrate. The enzyme reaction was performed in a reaction buffer containing 50 mM sodium phosphate buffer pH 8.0, 5 mM EDTA and 0.005% Tween 20 at 298 K for 20 min, and standard deviations were calculated from three independent experiments. The fluorescence intensity of the released MCA was measured with excitation at 355 nm and emission at 460 nm using an Infinite 200 PRO microplate reader (TECAN).
Target sequence in this assay (Q6F3I7 22-745 limits assumed): as the sequence (Q6F3I7 22-745) above

Compound | Ki (PmDAP IV [1]; read-out: PmDAP IV / Ki) | IC50 (PmDAP IV [2]) | Ki (PmDAP IV [1])
Cc1cc2ncc(C(=O)NCC(C)(C)NCC(=O)N3CCC[C@H]3C#N)cn2n1 [Anagliptin] | 3.99 ± 0.07 µM | 24.5 ± 0.4 µM | –
CC#CCn1c(N2CCC[C@@H](N)C2)nc2c1c(=O)n(Cc1nc(C)c3ccccc3n1)c(=O)n2C [Linagliptin] | 30 ± 1.16 µM | > 100 µM | –
CS(=O)(=O)n1cc2c(n1)CN([C@H]1CO[C@H](c3cc(F)ccc3F)[C@@H](N)C1)C2 [Omarigliptin] | 23.8 ± 3.8 µM | > 100 µM | –
N#C[C@@H]1C[C@@H]2C[C@@H]2N1C(=O)[C@@H](N)C12CC3CC(CC(O)(C3)C1)C2 [Saxagliptin] | – | 11.1 ± 0.8 µM | 1.85 ± 0.13 µM

Other lines, results leading:

Ki (PmDAP IV [1]; read-out: PmDAP IV / Ki) | IC50 (PmDAP IV [2]) | Ki (PmDAP IV [1]) | Compound
– | 24.6 ± 3.6 µM | 4 ± 0.59 µM | N[C@@H](CC(=O)N1CCn2c(nnc2C(F)(F)F)C1)Cc1cc(F)c(F)cc1F [Sitagliptin]
2.34 ± 0.09 µM | – | – | Cc1cc(N2CCN([C@@H]3CN[C@H](C(=O)N4CCSC4)C3)CC2)n(-c2ccccc2)n1 [Teneligliptin]
– | > 100 µM | – | Cn1c(=O)cc(N2CCC[C@@H](N)C2)n(Cc2cc(F)ccc2C#N)c1=O [Trelagliptin]
– | 18.8 ± 2.4 µM | 3.07 ± 0.39 µM | N#C[C@@H]1CCCN1C(=O)CNC12CC3CC(CC(O)(C3)C1)C2 [Vildagliptin]
